Values quoted from earlier work in patent US20110171166A1, “POLYMER CONJUGATES OF O[…]” (Nektar Therapeutics, priority 2008, published 2011).

What was measured:
primary adipocytes = settings: white and brown respectively
WT mice = settings: long-term treatment; gold thioglucose-induced hyperphagia and high-fat diet
[1] = test system: isolated pancreatic islets, a β cell line

## osteocalcin
Primary adipocytes
  amount affecting adiponectin and Pgc1α expression in white and brown adipocytes: nanomolar amounts
WT mice
  effect on body mass and glucose metabolism: significantly weaken the deleterious effect on body mass and glucose metabolism
[1]
  amount sufficient to regulate the expression of the insulin genes and β cell proliferation markers: picomolar amounts
